Tested on: Patients diagnosed with Alzheimer's Disease
Assay: Adverse events and discontinuation in 5-month slow-titration trial
Type: in vivo, human
Procedure: Subjects in the Placebo group received 21 weeks (5 months) of placebo medication.
The safety of the drug was also monitored throughout the study. Blood samples for biochemistry and haematology and random urine sample for urinalysis were taken at each visit and at completion for all efficacy testing. Systolic and diastolic blood pressure were measured in the sitting position, pulse and vital signs were recorded at each visit.

COc1ccc2c3c1O[C@H]1C[C@@H](O)C=C[C@@]31CCN(C)C2 [GAL, galantamine]
Agitation: % of patients (8 mg/day): (15.0%)
Agitation: number of patients (8 mg/day): 21
Anorexia: % of patients (8 mg/day): (5.7%)
Anorexia: number of patients (8 mg/day): 8
Bradycardia: % of patients (8 mg/day): (3.6%)
Bradycardia: number of patients (8 mg/day): 5
Convulsions: number of patients (8 mg/day): 0
DC due to adverse event: % (8 mg/day): 6%
DC due to adverse event: N (8 mg/day): 9
DC due to inefficacy: % (8 mg/day): 1 (1%)
DC due to inefficacy: N (8 mg/day): 1 (1%)
Depression: % of patients (8 mg/day): (2.9%)
Depression: number of patients (8 mg/day): 4
Diarrhea: % of patients (8 mg/day): (5.0%)
Diarrhea: number of patients (8 mg/day): 7
Dizziness: % of patients (8 mg/day): (5.0%)
Dizziness: number of patients (8 mg/day): 7
Dyspepsia: % of patients (8 mg/day): (2.9%)
Dyspepsia: number of patients (8 mg/day): 4
Edema peripheral: % of patients (8 mg/day): (6.4%)
Edema peripheral: number of patients (8 mg/day): 9
Fall: % of patients (8 mg/day): (7.9%)
Fall: number of patients (8 mg/day): 11
Fatigue: % of patients (8 mg/day): (2.1%)
Fatigue: number of patients (8 mg/day): 3
Headache: % of patients (8 mg/day): (3.6%)
Headache: number of patients (8 mg/day): 5
Injury: % of patients (8 mg/day): (3.6%)
Injury: number of patients (8 mg/day): 5
Muscle weakness: % of patients (8 mg/day): (0.7%)
Muscle weakness: number of patients (8 mg/day): 1
Nausea: % of patients (8 mg/day): (5.7%)
Nausea: number of patients (8 mg/day): 8
Rhinitis: % of patients (8 mg/day): (6.4%)
Rhinitis: number of patients (8 mg/day): 9
Serious adverse event Abdominal pain: % (8 mg/day): (0.0%)
Serious adverse event Abdominal pain: number (8 mg/day): 0
Serious adverse event Agitation: % (8 mg/day): (1.4%)
Serious adverse event Agitation: number (8 mg/day): 2
Serious adverse event Asthenia: % (8 mg/day): (0.0%)
Serious adverse event Asthenia: number (8 mg/day): 0
Serious adverse event Basal cell carcinoma: % (8 mg/day): (0.0%)
Serious adverse event Basal cell carcinoma: number (8 mg/day): 0
Serious adverse event Breast neoplasm female: % (8 mg/day): (0.0%)
Serious adverse event Breast neoplasm female: number (8 mg/day): 0
Serious adverse event Cardiac failure: % (8 mg/day): (0.0%)
Serious adverse event Cardiac failure: number (8 mg/day): 0
Serious adverse event Dehydration: % (8 mg/day): (0.0%)
Serious adverse event Dehydration: number (8 mg/day): 0
Serious adverse event Diarrhea: % (8 mg/day): (0.0%)
Serious adverse event Diarrhea: number (8 mg/day): 0
Serious adverse event Dyspnea: % (8 mg/day): (0.0%)
Serious adverse event Dyspnea: number (8 mg/day): 0
Serious adverse event Fall: % (8 mg/day): (2.9%)
Serious adverse event Fall: number (8 mg/day): 4
Serious adverse event Gi haemorrhage: % (8 mg/day): (0.0%)
Serious adverse event Gi haemorrhage: number (8 mg/day): 0
Serious adverse event Injury: % (8 mg/day): (0.7%)
Serious adverse event Injury: number (8 mg/day): 1
Serious adverse event Myocardial infarction: % (8 mg/day): (2.1%)
Serious adverse event Myocardial infarction: number (8 mg/day): 3
Serious adverse event Nausea: % (8 mg/day): (0.0%)
Serious adverse event Nausea: number (8 mg/day): 0
Serious adverse event Pneumonia: % (8 mg/day): (0.7%)
Serious adverse event Pneumonia: number (8 mg/day): 1
Serious adverse event Sepsis: % (8 mg/day): (0.0%)
Serious adverse event Sepsis: number (8 mg/day): 0
Serious adverse event Surgical intervention: % (8 mg/day): (0.0%)
Serious adverse event Surgical intervention: number (8 mg/day): 0
Serious adverse event Syncope: % (8 mg/day): (0.7%)
Serious adverse event Syncope: number (8 mg/day): 1
Serious adverse event Thrombophlebitis deep: % (8 mg/day): (0.0%)
Serious adverse event Thrombophlebitis deep: number (8 mg/day): 0
Serious adverse event Transient ischemic attack: % (8 mg/day): (0.7%)
Serious adverse event Transient ischemic attack: number (8 mg/day): 1
Serious adverse event Urinary tracq infection: % (8 mg/day): (0.7%)
Serious adverse event Urinary tracq infection: number (8 mg/day): 1
Serious adverse event Vomiting: % (8 mg/day): (0.0%)
Serious adverse event Vomiting: number (8 mg/day): 0
Syncope: % of patients (8 mg/day): (1.4%)
Syncope: number of patients (8 mg/day): 2
Total discontinued (DC): % (8 mg/day): 23%
Total discontinued (DC): N (8 mg/day): 32
Total patients with any SAE: % (8 mg/day): (10.0%)
Total patients with any SAE: number (8 mg/day): 14
Urinary tract infection: % of patients (8 mg/day): (7.9%)
Urinary tract infection: number of patients (8 mg/day): 11
Vomiting: % of patients (8 mg/day): (3.6%)
Vomiting: number of patients (8 mg/day): 5
Weight decrease: % of patients (8 mg/day): (1.4%)
Weight decrease: number of patients (8 mg/day): 2
Agitation: % of patients (16 mg/day): (10.0%)
Agitation: number of patients (16 mg/day): 28
Anorexia: % of patients (16 mg/day): (6.5%)
Anorexia: number of patients (16 mg/day): 18
Bradycardia: % of patients (16 mg/day): (2.5%)
Bradycardia: number of patients (16 mg/day): 7
Convulsions: number of patients (16 mg/day): 0
DC due to adverse event: % (16 mg/day): 7%
DC due to adverse event: N (16 mg/day): 19
DC due to inefficacy: N (16 mg/day): 0
Depression: % of patients (16 mg/day): (8.6%)
Depression: number of patients (16 mg/day): 24
Diarrhea: % of patients (16 mg/day): (12.2%)
Diarrhea: number of patients (16 mg/day): 34
Dizziness: % of patients (16 mg/day): (5.4%)
Dizziness: number of patients (16 mg/day): 15
Dyspepsia: % of patients (16 mg/day): (4.7%)
Dyspepsia: number of patients (16 mg/day): 13
Edema peripheral: % of patients (16 mg/day): (2.9%)
Edema peripheral: number of patients (16 mg/day): 8
Fall: % of patients (16 mg/day): (5.05%)
Fall: number of patients (16 mg/day): 14
Fatigue: % of patients (16 mg/day): (3.6%)
Fatigue: number of patients (16 mg/day): 10
Headache: % of patients (16 mg/day): (6.8%)
Headache: number of patients (16 mg/day): 19
Injury: % of patients (16 mg/day): (4.3%)
Injury: number of patients (16 mg/day): 12
Muscle weakness: % of patients (16 mg/day): (1.1%)
Muscle weakness: number of patients (16 mg/day): 3
Nausea: % of patients (16 mg/day): (13.3%)
Nausea: number of patients (16 mg/day): 37
Rhinitis: % of patients (16 mg/day): (3.2%)
Rhinitis: number of patients (16 mg/day): 9
Serious adverse event Abdominal pain: % (16 mg/day): (0.7%)
Serious adverse event Abdominal pain: number (16 mg/day): 2
Serious adverse event Agitation: % (16 mg/day): (0.4%)
Serious adverse event Agitation: number (16 mg/day): 1
Serious adverse event Asthenia: % (16 mg/day): (0.7%)
Serious adverse event Asthenia: number (16 mg/day): 2
Serious adverse event Basal cell carcinoma: % (16 mg/day): (0.0%)
Serious adverse event Basal cell carcinoma: number (16 mg/day): 0
Serious adverse event Breast neoplasm female: % (16 mg/day): (0.0%)
Serious adverse event Breast neoplasm female: number (16 mg/day): 0
Serious adverse event Cardiac failure: % (16 mg/day): (1.1%)

Source: US20030139391A1 (priority 2000, published 2003)
